Laboratory results reported in patent US20220218699A1, “New Pharmaceutical Formulation” (Hoffmann-La Roche Inc., priority 2019, published 2022).

How the values were obtained:
[1] = Single-dose food effect study in dogs; type: in vivo; conditions: formulation that did not comprise at least one acidulant
Text: Such food effects can cause difficulty during human testing of drugs as the fed or fasted condition of the patient can cause exposure or bioavailability of drugs to vary widely.

[2] = molecular target: TrkB (Homo sapiens, UniProt Q16620); conditions: cited from earlier work
Chain of TrkB (Q16620 32-822): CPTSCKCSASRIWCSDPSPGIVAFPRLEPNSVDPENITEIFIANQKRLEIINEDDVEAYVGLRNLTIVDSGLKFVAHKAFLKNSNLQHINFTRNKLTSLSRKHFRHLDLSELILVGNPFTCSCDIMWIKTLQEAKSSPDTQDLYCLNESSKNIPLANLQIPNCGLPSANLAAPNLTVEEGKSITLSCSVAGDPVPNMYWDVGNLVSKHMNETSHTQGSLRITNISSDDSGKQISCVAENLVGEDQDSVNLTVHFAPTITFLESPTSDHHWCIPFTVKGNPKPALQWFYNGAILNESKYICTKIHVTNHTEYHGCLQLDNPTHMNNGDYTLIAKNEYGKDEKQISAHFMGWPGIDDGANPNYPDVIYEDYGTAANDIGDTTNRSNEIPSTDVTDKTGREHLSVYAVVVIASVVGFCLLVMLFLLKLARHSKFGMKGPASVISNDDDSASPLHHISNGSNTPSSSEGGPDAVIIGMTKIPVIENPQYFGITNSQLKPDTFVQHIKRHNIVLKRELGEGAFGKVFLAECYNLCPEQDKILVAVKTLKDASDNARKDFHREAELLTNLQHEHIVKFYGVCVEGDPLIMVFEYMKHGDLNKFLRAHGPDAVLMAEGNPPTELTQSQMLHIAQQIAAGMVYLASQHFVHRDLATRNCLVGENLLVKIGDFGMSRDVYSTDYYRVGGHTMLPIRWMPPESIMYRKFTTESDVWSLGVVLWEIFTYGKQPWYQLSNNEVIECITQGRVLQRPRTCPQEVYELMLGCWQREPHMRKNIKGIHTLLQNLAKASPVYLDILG

[3] = molecular target: TrkC (Homo sapiens, UniProt Q16288); conditions: cited from earlier work
Chain of TrkC (Q16288 32-839): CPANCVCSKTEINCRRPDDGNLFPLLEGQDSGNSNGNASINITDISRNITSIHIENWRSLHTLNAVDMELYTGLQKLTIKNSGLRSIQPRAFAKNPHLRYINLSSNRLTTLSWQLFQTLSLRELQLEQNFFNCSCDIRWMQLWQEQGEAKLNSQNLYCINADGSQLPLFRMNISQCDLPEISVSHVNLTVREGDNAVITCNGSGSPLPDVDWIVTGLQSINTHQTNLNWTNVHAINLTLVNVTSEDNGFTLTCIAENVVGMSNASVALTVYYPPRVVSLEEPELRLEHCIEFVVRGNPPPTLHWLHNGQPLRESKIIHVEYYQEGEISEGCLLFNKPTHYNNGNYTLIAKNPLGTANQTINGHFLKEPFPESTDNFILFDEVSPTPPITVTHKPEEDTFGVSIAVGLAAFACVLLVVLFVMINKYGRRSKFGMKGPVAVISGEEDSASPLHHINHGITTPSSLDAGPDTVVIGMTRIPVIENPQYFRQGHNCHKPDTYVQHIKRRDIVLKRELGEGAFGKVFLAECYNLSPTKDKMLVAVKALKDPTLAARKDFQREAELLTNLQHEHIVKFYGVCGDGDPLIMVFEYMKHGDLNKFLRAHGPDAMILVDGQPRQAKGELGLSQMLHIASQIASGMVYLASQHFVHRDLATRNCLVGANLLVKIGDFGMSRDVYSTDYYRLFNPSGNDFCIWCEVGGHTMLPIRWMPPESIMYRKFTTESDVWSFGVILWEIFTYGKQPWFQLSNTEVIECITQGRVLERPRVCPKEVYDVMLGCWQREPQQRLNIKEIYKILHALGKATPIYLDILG

[4] = molecular target: anaplastic lymphoma kinase (ALK) (Homo sapiens, UniProt Q9UM73); conditions: cited from earlier work
Chain of anaplastic lymphoma kinase (ALK) (Q9UM73 19-1620): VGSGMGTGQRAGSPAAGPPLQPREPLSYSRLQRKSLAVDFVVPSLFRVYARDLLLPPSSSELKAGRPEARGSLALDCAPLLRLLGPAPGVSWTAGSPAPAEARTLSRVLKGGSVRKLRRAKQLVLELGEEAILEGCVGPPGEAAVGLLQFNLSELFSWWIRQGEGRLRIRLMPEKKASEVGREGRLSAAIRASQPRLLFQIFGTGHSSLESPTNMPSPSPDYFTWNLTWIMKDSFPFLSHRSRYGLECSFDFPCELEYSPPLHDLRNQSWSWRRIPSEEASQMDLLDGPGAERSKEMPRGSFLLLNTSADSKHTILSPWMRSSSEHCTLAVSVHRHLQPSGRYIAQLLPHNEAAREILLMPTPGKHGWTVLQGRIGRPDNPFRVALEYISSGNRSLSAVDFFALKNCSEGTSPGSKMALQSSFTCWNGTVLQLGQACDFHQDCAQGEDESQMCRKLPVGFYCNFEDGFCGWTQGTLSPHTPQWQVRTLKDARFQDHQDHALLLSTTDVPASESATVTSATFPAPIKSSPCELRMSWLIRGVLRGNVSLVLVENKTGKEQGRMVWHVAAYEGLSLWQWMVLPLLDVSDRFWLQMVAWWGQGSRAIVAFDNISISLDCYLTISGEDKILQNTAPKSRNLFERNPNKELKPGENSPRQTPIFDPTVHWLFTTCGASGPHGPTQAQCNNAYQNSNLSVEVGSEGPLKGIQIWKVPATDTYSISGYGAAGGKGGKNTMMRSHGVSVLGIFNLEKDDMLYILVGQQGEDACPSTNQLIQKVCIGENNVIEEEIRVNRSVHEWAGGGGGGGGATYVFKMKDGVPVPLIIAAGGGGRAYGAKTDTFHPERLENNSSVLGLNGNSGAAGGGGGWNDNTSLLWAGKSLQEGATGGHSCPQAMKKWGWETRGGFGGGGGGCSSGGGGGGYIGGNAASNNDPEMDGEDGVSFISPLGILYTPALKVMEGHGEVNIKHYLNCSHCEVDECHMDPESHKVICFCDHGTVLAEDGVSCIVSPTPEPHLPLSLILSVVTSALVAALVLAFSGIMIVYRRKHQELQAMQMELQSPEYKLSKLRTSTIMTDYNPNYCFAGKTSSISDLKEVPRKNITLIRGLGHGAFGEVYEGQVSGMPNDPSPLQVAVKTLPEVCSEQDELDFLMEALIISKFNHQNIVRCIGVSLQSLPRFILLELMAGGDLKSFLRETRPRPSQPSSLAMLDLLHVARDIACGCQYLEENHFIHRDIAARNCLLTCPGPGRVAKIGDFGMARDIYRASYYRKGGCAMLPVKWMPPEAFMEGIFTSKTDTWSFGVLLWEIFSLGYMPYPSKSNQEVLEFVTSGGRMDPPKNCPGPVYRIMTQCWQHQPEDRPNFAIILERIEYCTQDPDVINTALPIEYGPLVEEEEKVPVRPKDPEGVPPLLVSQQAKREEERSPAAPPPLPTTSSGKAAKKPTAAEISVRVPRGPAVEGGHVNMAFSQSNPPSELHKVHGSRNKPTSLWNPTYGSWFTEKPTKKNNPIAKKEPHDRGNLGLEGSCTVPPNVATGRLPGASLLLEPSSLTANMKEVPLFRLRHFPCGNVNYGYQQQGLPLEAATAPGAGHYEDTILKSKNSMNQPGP

In the case of `CN1CCN(c2ccc(C(=O)Nc3n[nH]c4ccc(Cc5cc(F)cc(F)c5)cc34)c(NC3CCOCC3)c2)CC1` [N-[5-(3,5-difluorobenzyl)-1H-indazol-3-yl]-4-(4-methyl-piperazin-1-yl)-2-(tetrahydro-pyran-4-ylamino)-benzamide], the “exposure levels under fed conditions compared to fasting conditions” value [1] is listed as “approximately 2 fold”, the “inhibition of tyrosine kinase TrkB” value [2] is listed as “potent inhibitor” and the “inhibition of tyrosine kinase TrkC” value [3] is listed as “potent inhibitor”. For the same compound, the “inhibition of tyrosine kinase ALK” value [4] was “potent inhibitor”.
